*1 amine or outer side, *2 acyl side, *3 side chain or, on linkers, in order; H or OH if unused. Where a SMILES comes first, the peptide text is derived from it. Bridges are numbered along the chain shown (N, C = ends). [ ]: non-standard residue; d: D form. X1 = O=C([C@@H]1CC(n2cc([C]34[CH]5[CH]6[CH]7[CH]3[Fe]6754389%10[CH]4[CH]3[CH]8[CH]9[CH]4%10)nn2)CN1[*:1])[*:2]
Assays:
[1] = molecular target: HxBc2 gp120 WT monomer (Human immunodeficiency virus type 1 group M subtype B, UniProt P04578); assay: Isothermal titration calorimetry, WT gp120; type: binding, HIV-1; settings: 25 °C
Experimental: (§1) Heats were obtained at 25 °C by injection of 8 μL of PT (100 μM) into a sample cell of a VP-ITC containing 1.4 mL recombinant HxBc2 gp120 (6–8 μM). Solid lines represent fits to a single site binding model.
(§2) The resulting heat changes upon injection were integrated over a time range of 240 s, and the obtained values were fit to a standard single site-binding model using Origin® software.

[2] = molecular target: HxBc2 gp120 V255I monomer (Human immunodeficiency virus type 1 group M subtype B, UniProt P04578, V255I); assay: Isothermal titration calorimetry, V255I gp120; type: binding, HIV-1
Experimental: as §1, §2

[3] = molecular target: HxBc2 gp120 V255I/S143N monomer (Human immunodeficiency virus type 1 group M subtype B, UniProt P04578, S143N/V255I); assay: Isothermal titration calorimetry, V255I/S143N gp120; type: binding, HIV-1; settings: 25 °C
Experimental: as §1, §2

[4] = molecular target: HIV-1 HxBc2 gp120 WT monomer (Human immunodeficiency virus type 1 group M subtype B, UniProt P04578); assay: Surface plasmon resonance, WT gp120; type: binding
Experimental: (§3) SPR experiments were performed on a Biacore 3000 biosensor (Global Cytiva Lifesciences) at 25 °C using PBS-P (10 mM Phosphate, 150 mM NaCl, pH 7.4, 0.005% P-20) as the running buffer. A CM5 sensor chip was docked and derivatized by amine coupling with HIV-1HxBc2 WT and mutant gp120 subunits using freshly prepared 1:1 50 mM NHS (N-hydroxysuccinamide):200 mM EDC (1-ethyl-3-(3-(dimethylamino)propyl) carbodiimide). […] The equilibrium dissociation constant was calculated as KD = k−1/k1.
(§4) Rate constants k1 and k-1 are defined as they are in the 1:1 binding model, while k2 and k-2 are first order rate constants describing isomerization and de-isomerization, respectively. Equations describing the time course of the interactions can be found in Additional file 1: Method S1. For the fit, it was assumed that the states Env·PT and Env·PT^∗ had the same SPR signal. Rate constants were determined using a least-squares gradient-step algorithm coded in Visual Basic and implemented through Microsoft Excel.

[5] = molecular target: HIV-1 HxBc2 gp120 V255I monomer (Human immunodeficiency virus type 1 group M subtype B, UniProt P04578, V255I); assay: Surface plasmon resonance, V255I gp120; type: binding
Experimental: as §3, §4

[6] = molecular target: HIV-1 HxBc2 gp120 V255I/S143N monomer (Human immunodeficiency virus type 1 group M subtype B, UniProt P04578, S143N/V255I); assay: Surface plasmon resonance, V255I/S143N gp120; type: binding
Experimental: as §3, §4

[7] = system: wild type NL4-3 Env on HEK293T cells; assay: gp120 shedding analysis by flow cytometry, wild type Env; type: cell-based, HIV-1; settings: WT NL4-3 Env on HEK293T cells; 37 °C, 2 h; mAb 35O22 flow cytometry; read-out: EC50 of induced gp120 shedding (intact Env trimers remaining)
Experimental: (§5) The measurements (mean fluorescence intensity) were obtained by flow cytometry using an anti-Env IgG (mAb 35O22) that recognizes a quaternary epitope at the gp120/gp41 interface.
(§6) The gp120 shedding assay was performed as described previously. Briefly, three million HEK293T cells per flask were transiently transfected with 4 μg of HIV-1 NL4-3 Env plasmid and transfection reagent FuGENE 6 (Promega). 5 mM EDTA in DPBS was used to detach cells at 24 h and cells were reseeded in 96-well plates with 50,000 cells per well. […] Cells were washed with fresh medium, detached with 5 mM EDTA, and then washed and resuspended in FC buffer (1% BSA and 1 mM EDTA in 10 mM PBS pH 7.4). 2% paraformaldehyde in DPBS was used to fix the cells for 15 min at room temperature. Cells were then washed and resuspended in the FC buffer three times. […] Cell counts and Env staining were assessed in counted cells on a Guava EasyCyte 5HT flow cytometry system (Millipore). Analyzed cells were subjected to forward/side scatter gating based on untreated control populations of identical transfection, and median fluorescence values were obtained using Guava InCyte 3.2 software. Data were analyzed in GraphPad Prism 9 using nonlinear regression fit with dose response-inhibitor equation (4 parameters).

[8] = system: S143N NL4-3 Env on HEK293T cells; assay: gp120 shedding analysis by flow cytometry, S143N Env; type: cell-based, HIV-1; settings: S143N mutant Env trimer; 50-fold higher than the EC50 value for wild type Env
Experimental: as §5, §6

[9] = system: V255I NL4-3 Env on HEK293T cells; assay: gp120 shedding analysis by flow cytometry, V255I Env; type: cell-based, HIV-1
Experimental: as §5, §6

[10] = system: V255I/S143N NL4-3 Env on HEK293T cells; assay: gp120 shedding analysis by flow cytometry, V255I/S143N Env; type: cell-based, HIV-1
Experimental: as §5, §6

[11] = system: CEM-GFP cells; assay: WST-1 cytotoxicity assay; type: cell-based; settings: up to concentrations of 125 μM
Experimental: The cytotoxicity was determined on CEM-GFP cells via a colorimetric assay to measure the relative proliferation rates of cells in culture. […] After 18 h of incubation, the media containing compounds were discarded and treated with 10% (v/v) WST-1 (a tetrazolium salt) in fresh media for one hour at 37 °C. The cell viability was determined by measuring the absorbance at 450 nm using a Tecan Infinite F50 plate reader.
Figure S1. […] Data represent means and standard deviations of three independent experiments performed in triplicate.

[12] = system: BaL.01 viruses; set-up: method as in PMID 24330857, PMID 26331669; settings: ref [16], [21], read-out: EC50 of induced gp120 shedding; cited from earlier work

CC[C@H](C)[C@@H]1NC(=O)[C@H](CC(N)=O)NC(=O)[C@@H](N)CC(=O)NCCCC[C@@H](C(N)=O)NC(=O)[C@H](Cc2c[nH]c3ccccc23)NC(=O)[C@@H]2CC(n3cc([C]45[CH]6[CH]7[CH]8[CH]4[Fe]786549%10%11[CH]5[CH]4[CH]9[CH]%10[CH]5%11)nn3)CN2C1=O (some centres unmarked) [AAR029b] (H-DNI[X1]WK-NH2; lactam 1-6 (inferred))
ITC binding stoichiometry n [1]: 1.1 ± 0.04
ITC −TΔS [1]: 4.5 ± 0.90 kcal/mol
ITC binding stoichiometry n ([2]; V255I gp120 (HxBc2), 25 °C): 1.0 ± 0.01
ITC −TΔS ([2]; V255I gp120 (HxBc2), 25 °C): 0.43 ± 0.30 kcal/mol
absolute impact of V255I substitution on enthalpy (ΔH) and entropy (TΔS) ([2]; mutant vs wild type gp120, ITC): 3.5 to 4.5 kcal/mol
ITC binding stoichiometry n [3]: 1.1 ± 0.04
ITC −TΔS [3]: 1.0 ± 0.91 kcal/mol
SPR k1 ([4]; PT association): 11 (M^−1 s^−1) × 10^–5
SPR k-1 ([4]; PT dissociation): 8.3 (s^−1) × 10^3
SPR k1 ([5]; V255I gp120, PT association): 5.4 (M^−1 s^−1) × 10^–5
SPR k-1 ([5]; V255I gp120, PT dissociation): 130 (s^−1) × 10^3
decrease in binding affinity (KD) by the V255I mutation, SPR ([5]; V255I vs WT gp120): 31 fold
SPR k1 ([6]; PT association): 3.6 (M^−1 s^−1) × 10^–5
SPR k-1 ([6]; PT dissociation): 110 (s^−1) × 10^3
EC50 [7]: 249 ± 75 nM
disruption of Env trimer (shedding) at high concentration [8]: only minimal disruption
decrease in sensitivity to ligand-induced shedding compared to wild type Env [9]: greater than tenfold
decrease in sensitivity to ligand-induced shedding compared to wild type Env [10]: greater than tenfold
cytotoxicity [11]: minimal
EC50 [12]: 315 nM

Source: PMC8501640, “Altered Env conformational dynamics as a mechanism of resistance to peptide-triazole HIV-1 inactivators” (Retrovirology, 2021)
